# Experimental data from patent US6525001B1, “Substituted pyrimidine and pyridine herbicides” (Mid-American Commercialization Corporation, priority 1997, dated 2003).
# Experiments:
# Type in all cases: in vivo
# [1] = tested on: purple nutsedge (Cyperus rotundus); experiment: Test C; design: key: 0 was no effect; 100 was complete control; details: PREEMERGENCE
# [2] = tested on: field bindweed (Convolvulus arvensis); experiment: Test C; design: key: 0 was no effect; 100 was complete control; details: PREEMERGENCE
# [3] = tested on: hairy beggarticks (Bidens pilosa); experiment: Test C; design: key: 0 was no effect; 100 was complete control; details: PREEMERGENCE
# [4] = tested on: johnsongrass (Sorghum halepense); experiment: Test C; design: key: 0 was no effect; 100 was complete control; details: PREEMERGENCE
# [5] = tested on: soybean (Glycine max); experiment: Test C; design: key: 0 was no effect; 100 was complete control; details: PREEMERGENCE
# [6] = tested on: sandbur (Cenchrus echinatus); experiment: Test E pre-/postemergence/post directed; design: key: 0 is no injury; 100 is complete control
# How it was run: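 Injury was scored visually on a 0 to 100 scale (100 = complete control) 13 to 21 days after treatment of greenhouse-grown plants. Test chemicals, in a surfactant-containing non-phytotoxic solvent, were sprayed onto soil within a day of planting, onto plants at the two to four leaf stage, or directed at the base of the plants.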
# [7] = tested on: bermudagrass (Cynodon dactylon); experiment: Test E pre-/postemergence/post directed; design: key: 0 is no effect; 100 is complete control; details: PREEMERGENCE, Rate 250 g/ha
# Excerpt: (§1) Seeds, tubers, or plant parts of alexandergrass (Brachiaria plantaginea), annual bluegrass (Poa annua), arrowleaf sida (Sida rhombifolia), barnyardgrass (Echinochloa crus-galli), bermudagrass (Cynodon dactylon), citrus (Citrus sinensis), common chickweed (Stellaria media), common purslane (Portulaca oleracea), common ragweed (Ambrosia elatior), common groundsel (Senecio vulgaris), dallisgrass (Paspalum dilatatum), goosegrass (Eleusine indica), green foxtail (Setaria viridis), guineagrass (Panicum maximum), itchgrass (Rottboellia exaltata), johnson grass (Sorghum halepense), kochia (Kochia scoparia), large crabgrass (Digitaria sanguinalis), leafy spurge (Euphorbia esula), pitted morningglory (Ipomoea lacunosa), purple nutsedge (Cyperus rotundus), quackgrass (Agropyron repens), Russian thistle (Salsola kali), sandbur (Cenchrus echinatus), sourgrass (Trichachne insularis), Spanishneedles (Bidens bipinnata), sugarcane (Saccharum officinarum), surinam grass (Brachiaria decumbens) and tall mallow (Malva sylvestris) were planted into greenhouse pots of flats containing greenhouse planting medium. Plant species were grown grown in separate pots or individual compartments. Preemergence applications were made within one day of planting the seed or plant part. Postemergence applications were applied when the plants were in the two to four leaf stage (three to twenty cm).
# (§2) Test chemicals were formulated in a non-phytotoxic solvent mixture which included a surfactant and applied preemergence to the soil surface, postemergence to the plants or as a post directed spray to plants and soil at the base of the target species. Untreated control plants and treated plants were placed in the greenhouse and visually evaluated for injury 13 to 21 days after herbicide application. Plant response ratings, summarized in Table E, are based on a 0 to 100 scale where 0 is no injury and 100 is complete control. A dash (−) response means no test result.
# [8] = tested on: common groundsel (Senecio vulgaris); experiment: Test E pre-/postemergence/post directed; design: key: 0 is no effect; 100 is complete control; details: PREEMERGENCE
# Excerpt: as §1, §2
# [9] = tested on: goosegrass (Eleusine indica); experiment: Test E pre-/postemergence/post directed; design: key: 0 is no effect; 100 is complete control
# Excerpt: as §1, §2
# [10] = tested on: guineagrass (Panicum maximum); experiment: Test E pre-/postemergence/post directed; design: key: 0 is no effect; 100 is complete control
# Excerpt: as §1, §2
# [11] = tested on: common ragweed (Ambrosia elatior); experiment: Test E pre-/postemergence/post directed; design: key: 0 is no effect; 100 is complete control; details: PREEMERGENCE, Rate 250 g/ha
# Excerpt: as §1, §2
# [12] = tested on: tall mallow (Malva sylvestris); experiment: Test E pre-/postemergence/post directed; design: key: 0 is no effect; 100 is complete control; details: PREEMERGENCE
# Excerpt: as §1, §2
# [13] = tested on: common purslane (Portulaca oleracea); experiment: Test E pre-/postemergence/post directed; design: key: 0 is no effect; 100 is complete control
# Excerpt: as §1, §2
# [14] = tested on: dallisgrass (Paspalum dilatatum); experiment: Test E pre-/postemergence/post directed; design: key: 0 is no effect; 100 is complete control
# Excerpt: as §1, §2
# [15] = tested on: sourgrass (Trichachne insularis); experiment: Test E pre-/postemergence/post directed; design: key: 0 is no effect; 100 is complete control
# Excerpt: as §1, §2
# [16] = tested on: wild oat (Avena fatua); experiment: Test D; details: PREEMERGENCE
# [17] = tested on: downy brome (Bromus tectorum); experiment: Test D; details: PREEMERGENCE
smiles,measurement,setting,value
Cc1cnc(-n2cnc(C(F)(F)F)n2)nc1Cc1cccc(C(F)(F)F)c1 [Compound 43],"Plant response rating, Purple nutsedge",[1]; Rate 35 g/ha,0
same,"Plant response rating, Purple nutsedge",[1]; Rate 70 g/ha,0
same,"Plant response rating, Purple nutsedge",[1]; Rate 140 g/ha,0
same,"Plant response rating, Field bindweed",[2]; Rate 35 g/ha,100
same,"Plant response rating, Field bindweed",[2]; Rate 70 g/ha,100
same,"Plant response rating, Field bindweed",[2]; Rate 140 g/ha,100
same,"Plant response rating, H. beggarticks",[3]; Rate 35 g/ha,0
same,"Plant response rating, H. beggarticks",[3]; Rate 70 g/ha,5
same,"Plant response rating, H. beggarticks",[3]; Rate 140 g/ha,100
same,"Plant response rating, Johnsongrass",[4]; Rate 35 g/ha,10
same,"Plant response rating, Johnsongrass",[4]; Rate 70 g/ha,30
same,"Plant response rating, Johnsongrass",[4]; Rate 140 g/ha,30
same,"Plant response rating, Soybean",[5]; Rate 35 g/ha,0
same,"Plant response rating, Soybean",[5]; Rate 70 g/ha,5
same,"Plant response rating, Soybean",[5]; Rate 140 g/ha,55
Cc1cnc(-n2cnc(C(F)(F)F)c2)nc1Cc1cccc(C(F)(F)F)c1 [Compound 44],"Plant response rating, Sandbur","[6]; POSTEMERGENCE, Rate 125 g/ha",0
same,"Plant response rating, Sandbur","[6]; POSTEMERGENCE, Rate 250 g/ha",0
same,"Plant response rating, Sandbur","[6]; PREEMERGENCE, Rate 32 g/ha",0
same,"Plant response rating, Bermudagrass",[7],100
same,"Plant response rating, Com. groundsel",[8]; Rate 64 g/ha,100
same,"Plant response rating, Com. groundsel",[8]; Rate 125 g/ha,100
same,"Plant response rating, Com. groundsel",[8]; Rate 250 g/ha,100
same,"Plant response rating, Goosegrass","[9]; POSTEMERGENCE, Rate 125 g/ha",10
same,"Plant response rating, Goosegrass","[9]; POSTEMERGENCE, Rate 250 g/ha",20
same,"Plant response rating, Goosegrass","[9]; PREEMERGENCE, Rate 32 g/ha",98
same,"Plant response rating, Goosegrass","[9]; PREEMERGENCE, Rate 64 g/ha",98
same,"Plant response rating, Goosegrass","[9]; PREEMERGENCE, Rate 125 g/ha",98
same,"Plant response rating, Goosegrass","[9]; PREEMERGENCE, Rate 250 g/ha",100
same,"Plant response rating, Guineagrass","[10]; POSTEMERGENCE, Rate 125 g/ha",85
same,"Plant response rating, Guineagrass","[10]; POSTEMERGENCE, Rate 250 g/ha",85
same,"Plant response rating, Guineagrass","[10]; PREEMERGENCE, Rate 32 g/ha",20
same,"Plant response rating, Guineagrass","[10]; PREEMERGENCE, Rate 64 g/ha",80
same,"Plant response rating, Guineagrass","[10]; PREEMERGENCE, Rate 125 g/ha",100
same,"Plant response rating, Guineagrass","[10]; PREEMERGENCE, Rate 250 g/ha",100
same,"Plant response rating, Com. ragweed",[11],100
same,"Plant response rating, Tall Mallow",[12]; Rate 32 g/ha,80
same,"Plant response rating, Tall Mallow",[12]; Rate 64 g/ha,80
same,"Plant response rating, Tall Mallow",[12]; Rate 125 g/ha,98
same,"Plant response rating, Tall Mallow",[12]; Rate 250 g/ha,98
same,"Plant response rating, Com. purslane","[13]; POSTEMERGENCE, Rate 125 g/ha",70
same,"Plant response rating, Com. purslane","[13]; POSTEMERGENCE, Rate 250 g/ha",70
same,"Plant response rating, Com. purslane","[13]; PREEMERGENCE, Rate 32 g/ha",80
same,"Plant response rating, Com. purslane","[13]; PREEMERGENCE, Rate 64 g/ha",100
same,"Plant response rating, Com. purslane","[13]; PREEMERGENCE, Rate 125 g/ha",100
same,"Plant response rating, Com. purslane","[13]; PREEMERGENCE, Rate 250 g/ha",100
same,"Plant response rating, Dallisgrass","[14]; POSTEMERGENCE, Rate 125 g/ha",10
same,"Plant response rating, Dallisgrass","[14]; POSTEMERGENCE, Rate 250 g/ha",10
same,"Plant response rating, Dallisgrass","[14]; PREEMERGENCE, Rate 32 g/ha",65
same,"Plant response rating, Dallisgrass","[14]; PREEMERGENCE, Rate 64 g/ha",80
same,"Plant response rating, Dallisgrass","[14]; PREEMERGENCE, Rate 125 g/ha",90
same,"Plant response rating, Dallisgrass","[14]; PREEMERGENCE, Rate 250 g/ha",100
same,"Plant response rating, Sourgrass","[15]; POSTEMERGENCE, Rate 125 g/ha",10
same,"Plant response rating, Sourgrass","[15]; POSTEMERGENCE, Rate 250 g/ha",20
same,"Plant response rating, Sourgrass","[15]; PREEMERGENCE, Rate 32 g/ha",80
same,"Plant response rating, Sourgrass","[15]; PREEMERGENCE, Rate 64 g/ha",100
same,"Plant response rating, Sourgrass","[15]; PREEMERGENCE, Rate 125 g/ha",100
same,"Plant response rating, Sourgrass","[15]; PREEMERGENCE, Rate 250 g/ha",100
Cc1cnc(-n2cnc(C(F)(F)F)n2)nc1Cn1ccc(C(F)(F)F)n1 [Compound 51],"Plant response rating, Wild oat",[16]; Rate 31 g/ha,80
same,"Plant response rating, Wild oat",[16]; Rate 62 g/ha,95
same,"Plant response rating, Downy brome",[17]; Rate 31 g/ha,80
same,"Plant response rating, Downy brome",[17]; Rate 62 g/ha,80
Cc1cnc(-n2ccc(C(F)(F)F)n2)nc1C(=O)c1cccc(OC(F)(F)F)c1 [Compound 66],"Plant response rating, Purple nutsedge",[1]; Rate 35 g/ha,0
same,"Plant response rating, Purple nutsedge",[1]; Rate 70 g/ha,0
same,"Plant response rating, Purple nutsedge",[1]; Rate 140 g/ha,0
same,"Plant response rating, Field bindweed",[2]; Rate 35 g/ha,40
same,"Plant response rating, Field bindweed",[2]; Rate 70 g/ha,80
same,"Plant response rating, Field bindweed",[2]; Rate 140 g/ha,90
same,"Plant response rating, H. beggarticks",[3]; Rate 35 g/ha,0
same,"Plant response rating, H. beggarticks",[3]; Rate 70 g/ha,0
same,"Plant response rating, H. beggarticks",[3]; Rate 140 g/ha,0
same,"Plant response rating, Johnsongrass",[4]; Rate 35 g/ha,0
same,"Plant response rating, Johnsongrass",[4]; Rate 70 g/ha,5
same,"Plant response rating, Johnsongrass",[4]; Rate 140 g/ha,10
same,"Plant response rating, Soybean",[5]; Rate 35 g/ha,0
same,"Plant response rating, Soybean",[5]; Rate 70 g/ha,0
same,"Plant response rating, Soybean",[5]; Rate 140 g/ha,0
